Measured values reported in publication PMC11062922 (Nature Chemical Biology, 2023).
Values joined by “and” are separate entries in the source; they are usually repeats but may differ in a detail not shown here. Equal entries are not always repeated. Where two headings read alike, the source gives them in different places. Values belong to the molecule of their own block, whether it stands above or below them.

Assays:
PKN2 = biological target: T1, PKN2 (Homo sapiens, UniProt Q16513); experiment: Kinobeads full dose-response competition binding: PKN2; conditions: Gene Name PKN2
T1 construct: a mixture of lysates from five cancer cell lines; endogenous in cells

CK2alpha1 (CSNK2A1) = biological target: T2, CK2alpha1 (CSNK2A1) (Homo sapiens, UniProt P68400); experiment: Recombinant kinase activity assay (ProQinase, FlashPlate radiometric): CK2alpha1; format: biochemical
T2 construct: purchased ProQinase
Experimental: Kinase activity assays were performed by ProQinase. Dose-dependent activity inhibition of CDK1/cyclinB, CK2alpha1 and CK2alpha2 were measured using a FlashPlateTM-based radiometric assay at KM (ATP) of the respective kinase.

CSNK2A1 = biological target: T3, CSNK2A1 (Homo sapiens, UniProt P68400); experiment: NanoBRET in-cell target engagement in HEK293T cells: CSNK2A1; format: cell-based
T3 construct: full-length PKN3, CSNK2A1 or CSNK2A2 ORF; host or cells: HEK293T
Experimental: The NanoBRET assay was performed as described previously[28],[58]. In brief, full-length PKN3, CSNK2A1 or CSNK2A2 ORF (PKN3 vector was a kind gift of Promega, Vectors for […]: NV2981, NV1191) cloned in frame with a C-terminal NanoLuc-fusion, respectively, were transfected into HEK293T cells using FuGENE HD (Promega, E2312) and proteins were allowed to express for 20 h. Serially diluted inhibitor and NanoBRET Kinase Tracer K5 (Promega, N2530) at 500 nM (PKN3) or NanoBRET Kinase Tracer K10 (Promega, N2840) at 500 nM ([…]) were pipetted into 384-well plates using an Echo acoustic dispenser (Labcyte). The PKN3, CSNK2A1 or CSNK2A2 transfected cells were added at a density of 2 × 10^5 cells per ml after trypsinization and resuspending in Opti-MEM without phenol red (Life Technologies). The system was allowed to equilibrate for 2 h at 37 °C and 5% CO2 before BRET measurements. BRET signaling was measured by adding NanoBRET NanoGlo Substrate and Extracellular NanoLuc Inhibitor (Promega) according to the manufacturer’s protocol. Filtered luminescence was measured on a PHERAstar plate reader (BMG Labtech) equipped with a luminescence filter pair (450 nm BP filter (donor) and 610 LP filter (acceptor)). Competitive displacement data were then graphed using GraphPad Prism software (v.5.01) using a three-parameter curve fit with the following equation Y=bottom+(top−bottom)/1+10^logIC50−X×hillslope
Experiments were performed with at least two biological and two technical replicates.

EPHB3 = biological target: T4, EPHB3 (Homo sapiens, UniProt P54753); experiment: Kinobeads two-dose competition binding: EPHB3; conditions: read-out: Lestaurtinib Drugmatrix value, Gene Name EPHB3
T4 construct: endogenous in cells
T4 sequence (P54753 34-998): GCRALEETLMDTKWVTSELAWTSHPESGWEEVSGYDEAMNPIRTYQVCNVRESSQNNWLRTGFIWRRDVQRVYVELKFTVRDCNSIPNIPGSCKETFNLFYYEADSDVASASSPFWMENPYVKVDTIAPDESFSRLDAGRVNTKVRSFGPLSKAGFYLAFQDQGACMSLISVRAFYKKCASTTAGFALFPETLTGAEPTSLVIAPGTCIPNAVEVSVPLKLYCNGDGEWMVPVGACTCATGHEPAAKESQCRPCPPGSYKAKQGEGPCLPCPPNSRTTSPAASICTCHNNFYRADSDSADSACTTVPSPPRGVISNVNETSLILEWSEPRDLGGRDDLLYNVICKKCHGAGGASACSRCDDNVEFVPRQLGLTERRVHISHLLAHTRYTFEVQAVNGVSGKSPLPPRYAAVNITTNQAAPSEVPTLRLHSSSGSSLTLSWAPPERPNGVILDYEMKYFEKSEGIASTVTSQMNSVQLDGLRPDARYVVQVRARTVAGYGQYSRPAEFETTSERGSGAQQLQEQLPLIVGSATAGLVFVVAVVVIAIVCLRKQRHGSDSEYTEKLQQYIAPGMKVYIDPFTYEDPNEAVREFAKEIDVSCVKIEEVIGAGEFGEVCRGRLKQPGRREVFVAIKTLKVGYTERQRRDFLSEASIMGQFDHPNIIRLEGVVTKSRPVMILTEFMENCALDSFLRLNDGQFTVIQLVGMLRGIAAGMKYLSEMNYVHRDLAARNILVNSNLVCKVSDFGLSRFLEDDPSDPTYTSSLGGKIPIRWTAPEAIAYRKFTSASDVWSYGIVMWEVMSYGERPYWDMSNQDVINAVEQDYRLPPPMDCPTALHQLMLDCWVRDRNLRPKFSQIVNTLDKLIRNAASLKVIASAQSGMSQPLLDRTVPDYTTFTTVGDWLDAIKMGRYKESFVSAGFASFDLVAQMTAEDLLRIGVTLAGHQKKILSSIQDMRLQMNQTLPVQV

NTRK1 = biological target: T5, NTRK1 (Homo sapiens, UniProt P04629); experiment: Kinobeads competition binding, Lestaurtinib control replicates: NTRK1; conditions: read-out: Lestaurtinib Drugmatrix value, NTRK1; Gene Name NTRK1; one column per experiment number and replicate (R1-R3)
T5 construct: endogenous in cells

FYN = biological target: T6, FYN (Homo sapiens, UniProt P06241); experiment: Kinobeads two-dose competition binding: FYN; conditions: read-out: Lestaurtinib Drugmatrix value, Gene Name FYN; target FYN; each column = one Lestaurtinib control replicate (batch_R1-R3)
T6 construct: endogenous in cells

PRKAG2 = biological target: T7, PRKAG2 (Homo sapiens, UniProt Q9UGJ0); experiment: Kinobeads competition binding, Lestaurtinib control replicates: PRKAG2; conditions: read-out: Lestaurtinib Drugmatrix value, PRKAG2; Gene Name PRKAG2; one column per experiment number and replicate (R1-R3)
T7 construct: endogenous in cells
T7 sequence (Q9UGJ0 whole entry): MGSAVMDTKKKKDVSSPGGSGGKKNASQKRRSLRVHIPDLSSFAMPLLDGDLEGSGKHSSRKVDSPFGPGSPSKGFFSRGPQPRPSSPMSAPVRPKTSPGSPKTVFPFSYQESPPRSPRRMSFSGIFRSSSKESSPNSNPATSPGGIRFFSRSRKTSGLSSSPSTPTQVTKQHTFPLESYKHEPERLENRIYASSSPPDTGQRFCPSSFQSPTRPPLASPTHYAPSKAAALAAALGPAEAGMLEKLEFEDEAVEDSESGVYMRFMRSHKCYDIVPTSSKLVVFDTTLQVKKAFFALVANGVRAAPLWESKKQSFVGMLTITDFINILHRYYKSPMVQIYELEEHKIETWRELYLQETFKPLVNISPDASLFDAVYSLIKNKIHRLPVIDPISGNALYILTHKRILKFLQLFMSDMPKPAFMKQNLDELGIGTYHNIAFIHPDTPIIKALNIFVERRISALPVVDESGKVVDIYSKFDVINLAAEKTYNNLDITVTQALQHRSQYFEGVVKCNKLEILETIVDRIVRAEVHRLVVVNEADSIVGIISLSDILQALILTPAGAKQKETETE
T7 sequence (Q13131 whole entry partner): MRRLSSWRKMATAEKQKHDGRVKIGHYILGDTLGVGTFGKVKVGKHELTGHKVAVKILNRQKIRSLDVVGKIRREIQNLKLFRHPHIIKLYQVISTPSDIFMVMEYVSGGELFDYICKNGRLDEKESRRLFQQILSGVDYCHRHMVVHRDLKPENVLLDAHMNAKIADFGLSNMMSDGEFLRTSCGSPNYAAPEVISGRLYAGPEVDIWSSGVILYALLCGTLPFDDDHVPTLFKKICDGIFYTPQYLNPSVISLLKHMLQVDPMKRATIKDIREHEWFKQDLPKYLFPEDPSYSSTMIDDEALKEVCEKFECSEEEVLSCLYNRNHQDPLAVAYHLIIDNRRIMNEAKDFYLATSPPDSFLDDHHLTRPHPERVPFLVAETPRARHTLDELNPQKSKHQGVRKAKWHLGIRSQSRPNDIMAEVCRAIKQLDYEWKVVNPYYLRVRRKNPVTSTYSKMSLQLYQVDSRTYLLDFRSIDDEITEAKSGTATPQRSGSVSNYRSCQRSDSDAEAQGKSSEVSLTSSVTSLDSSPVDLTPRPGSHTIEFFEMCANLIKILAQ
T7 sequence (Q9Y478 2-270 partner limits assumed): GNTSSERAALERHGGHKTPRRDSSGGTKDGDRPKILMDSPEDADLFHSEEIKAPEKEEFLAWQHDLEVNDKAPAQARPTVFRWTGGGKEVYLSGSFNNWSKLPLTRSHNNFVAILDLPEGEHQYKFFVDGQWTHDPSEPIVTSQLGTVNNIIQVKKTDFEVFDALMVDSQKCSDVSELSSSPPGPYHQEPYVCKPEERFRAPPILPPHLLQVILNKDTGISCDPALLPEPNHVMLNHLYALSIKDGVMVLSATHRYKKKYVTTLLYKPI

T3 sequence (P68400 whole entry): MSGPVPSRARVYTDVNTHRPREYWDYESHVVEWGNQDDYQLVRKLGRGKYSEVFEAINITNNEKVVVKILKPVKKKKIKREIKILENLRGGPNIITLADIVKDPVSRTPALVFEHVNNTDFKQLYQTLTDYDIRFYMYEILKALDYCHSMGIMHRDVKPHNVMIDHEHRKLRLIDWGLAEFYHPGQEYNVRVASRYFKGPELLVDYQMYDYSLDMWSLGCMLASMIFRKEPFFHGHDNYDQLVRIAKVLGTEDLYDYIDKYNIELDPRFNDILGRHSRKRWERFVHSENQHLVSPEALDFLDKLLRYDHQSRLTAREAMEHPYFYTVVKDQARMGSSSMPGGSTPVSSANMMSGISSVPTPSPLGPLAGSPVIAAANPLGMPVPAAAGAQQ
T1 sequence (Q16513 whole entry): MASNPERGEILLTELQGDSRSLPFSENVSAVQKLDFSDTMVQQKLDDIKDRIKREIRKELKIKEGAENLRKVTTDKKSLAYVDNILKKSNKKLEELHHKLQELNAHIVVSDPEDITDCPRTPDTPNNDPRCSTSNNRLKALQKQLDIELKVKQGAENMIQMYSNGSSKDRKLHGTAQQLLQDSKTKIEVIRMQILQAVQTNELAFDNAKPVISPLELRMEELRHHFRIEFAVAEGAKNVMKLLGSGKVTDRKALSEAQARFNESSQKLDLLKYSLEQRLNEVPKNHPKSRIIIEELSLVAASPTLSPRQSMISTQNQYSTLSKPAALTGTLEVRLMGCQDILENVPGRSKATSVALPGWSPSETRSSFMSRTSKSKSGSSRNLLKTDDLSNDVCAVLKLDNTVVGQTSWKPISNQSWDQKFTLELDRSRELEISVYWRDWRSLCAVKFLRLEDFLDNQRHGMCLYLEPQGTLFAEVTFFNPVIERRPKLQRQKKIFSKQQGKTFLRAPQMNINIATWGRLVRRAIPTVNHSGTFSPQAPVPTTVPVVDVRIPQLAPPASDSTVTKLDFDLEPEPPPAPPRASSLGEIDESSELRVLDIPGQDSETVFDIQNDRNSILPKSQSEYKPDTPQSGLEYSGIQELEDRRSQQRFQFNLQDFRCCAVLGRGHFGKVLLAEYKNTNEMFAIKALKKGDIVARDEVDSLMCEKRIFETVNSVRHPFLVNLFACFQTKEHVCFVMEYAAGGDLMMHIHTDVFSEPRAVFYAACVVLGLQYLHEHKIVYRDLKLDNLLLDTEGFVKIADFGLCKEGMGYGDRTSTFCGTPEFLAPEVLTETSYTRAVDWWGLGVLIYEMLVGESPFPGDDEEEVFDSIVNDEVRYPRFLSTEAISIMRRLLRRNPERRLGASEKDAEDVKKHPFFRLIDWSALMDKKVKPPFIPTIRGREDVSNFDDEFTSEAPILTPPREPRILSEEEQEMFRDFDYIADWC
T2 sequence (P68400 whole entry): as the sequence (P68400 whole entry) above
T5 sequence (P04629 33-796): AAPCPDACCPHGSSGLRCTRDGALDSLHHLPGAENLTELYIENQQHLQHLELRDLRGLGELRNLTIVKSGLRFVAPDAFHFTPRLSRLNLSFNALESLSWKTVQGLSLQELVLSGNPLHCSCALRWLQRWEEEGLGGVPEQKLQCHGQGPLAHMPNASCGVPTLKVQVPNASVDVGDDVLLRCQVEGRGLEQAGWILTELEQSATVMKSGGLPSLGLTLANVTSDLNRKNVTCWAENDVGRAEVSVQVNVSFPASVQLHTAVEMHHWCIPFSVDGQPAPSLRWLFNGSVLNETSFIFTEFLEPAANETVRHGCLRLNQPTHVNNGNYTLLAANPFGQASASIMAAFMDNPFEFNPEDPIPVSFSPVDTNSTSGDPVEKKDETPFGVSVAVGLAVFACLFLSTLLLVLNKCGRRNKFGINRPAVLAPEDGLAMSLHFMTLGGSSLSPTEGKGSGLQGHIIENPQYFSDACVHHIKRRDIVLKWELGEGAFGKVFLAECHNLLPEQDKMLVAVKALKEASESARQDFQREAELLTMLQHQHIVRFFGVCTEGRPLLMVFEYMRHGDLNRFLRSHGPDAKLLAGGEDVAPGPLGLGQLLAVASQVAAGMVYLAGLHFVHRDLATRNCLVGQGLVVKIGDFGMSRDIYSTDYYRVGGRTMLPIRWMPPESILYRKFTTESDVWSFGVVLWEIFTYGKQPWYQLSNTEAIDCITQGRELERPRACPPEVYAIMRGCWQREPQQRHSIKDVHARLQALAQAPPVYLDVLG
T6 sequence (P06241 whole entry): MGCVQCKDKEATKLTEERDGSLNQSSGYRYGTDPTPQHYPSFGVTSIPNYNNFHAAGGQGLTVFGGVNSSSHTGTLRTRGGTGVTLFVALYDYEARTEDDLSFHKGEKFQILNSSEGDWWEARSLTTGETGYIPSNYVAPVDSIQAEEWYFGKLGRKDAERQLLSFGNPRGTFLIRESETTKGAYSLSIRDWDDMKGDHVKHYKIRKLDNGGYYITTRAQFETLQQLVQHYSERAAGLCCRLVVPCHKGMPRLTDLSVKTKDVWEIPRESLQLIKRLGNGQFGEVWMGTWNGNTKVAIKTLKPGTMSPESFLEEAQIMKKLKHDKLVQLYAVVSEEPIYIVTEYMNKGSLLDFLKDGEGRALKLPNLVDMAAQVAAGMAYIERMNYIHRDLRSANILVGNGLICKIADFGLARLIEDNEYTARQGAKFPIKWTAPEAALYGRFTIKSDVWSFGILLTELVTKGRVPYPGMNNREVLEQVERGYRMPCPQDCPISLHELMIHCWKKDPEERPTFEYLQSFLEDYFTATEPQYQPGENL

- Relative Intensity 0.3nM (PKN2; 0.3nM compound, DMSO = 1): 0.9769
- Relative Intensity 1nM (PKN2; 1nM compound, DMSO = 1): 1.016
- Relative Intensity 3nM (PKN2; 3nM compound, DMSO = 1): 1.0433
- Relative Intensity 10nM (PKN2; 10nM compound, DMSO = 1): 1.014
- Relative Intensity 30nM (PKN2; 30nM compound, DMSO = 1): 0.9503
- Relative Intensity 100nM (PKN2; 100nM compound, DMSO = 1): 0.8449
- Relative Intensity 300nM (PKN2; 300nM compound, DMSO = 1): 0.6334
- Relative Intensity 1000nM (PKN2; 1000nM compound, DMSO = 1): 0.3485
- Kd (PKN2; EC50 with Correction, doses in nM, read-out: apparent Kd): 401 nM
- EC50 (PKN2; eight-dose curve fit, doses in nM): 401 nM
SMILES: CCn1c(-c2nonc2N)nc2c(C#CC(C)(C)O)nc(OCCN)cc21 [GSK902056A]

SMILES: COc1cc(Nc2ncc3c(C)nc(-c4cc5ccccc5[nH]4)n3n2)cc(OC)c1OC [GW869516X]
- IC50 (CK2alpha1 (CSNK2A1); Enzyme CK2alpha1, Highest Assay Concentration 1.00E-06 M, read-out: IC50): 85.1 nM
- IC50 (CK2alpha1 (CSNK2A1); recombinant kinase activity assay at KM (ATP), read-out: Activity IC50 CSNK2A1): 85 nM
- IC50 (CSNK2A1; CSNK2A1, replicate 1, read-out: NanoBRET Rep1): 471 nM
- IC50 (CSNK2A1; CSNK2A1, replicate 2, read-out: NanoBRET Rep2): 421 nM
- IC50 (CSNK2A1; HEK293T cells, in-cell target engagement, read-out: IC50 CSNK2A1 NanoBRET): 446 nM

SMILES: C[C@]12O[C@H](C[C@]1(O)CO)n1c3ccccc3c3c4c(c5c6ccccc6n2c5c31)CNC4=O [Lestaurtinib]
- potency estimated from few doses (EPHB3): 780 nM
- potency estimated from few doses (NTRK1): 772 nM
- potency estimated from few doses (FYN): 817 nM
- potency estimated from few doses (PRKAG2): 888 nM (2×) and 629 nM and 352 nM and 850 nM and 720 nM
